Experimental data published in patent US9796700B2 (Celgene CAR LLC, priority 2013, dated 2017).

Target: Erk1 (Homo sapiens (Human), UniProt P27361)
Assay: Protein Mass Modification Assay (intact protein MALDI)
Type: binding
Summary of the method: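 Human Erk1 was incubated 60 min at room temperature with a 10-fold molar excess of compound, then analysed as intact protein by MALDI with sinapinic acid matrix. The centroid mass shift versus untreated protein was divided by compound molecular weight to give percent modified protein.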

Sequence of Erk1 (P27361 whole entry, looked up): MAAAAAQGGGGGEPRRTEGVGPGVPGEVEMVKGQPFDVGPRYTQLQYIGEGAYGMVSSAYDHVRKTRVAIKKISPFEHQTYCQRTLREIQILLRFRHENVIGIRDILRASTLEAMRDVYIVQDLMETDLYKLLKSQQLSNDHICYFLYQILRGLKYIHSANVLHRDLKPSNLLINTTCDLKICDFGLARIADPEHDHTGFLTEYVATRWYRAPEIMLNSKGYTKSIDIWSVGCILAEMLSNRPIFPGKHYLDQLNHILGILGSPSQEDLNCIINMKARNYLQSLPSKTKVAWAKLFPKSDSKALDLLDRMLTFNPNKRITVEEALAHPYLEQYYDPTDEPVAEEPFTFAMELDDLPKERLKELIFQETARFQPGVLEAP

SMILES | ERK1 Mass Mod (%)
CC(=O)N1CCC[C@H](Nc2ncc(C(F)(F)F)c(N[C@H]3[C@@H](C(N)=O)[C@@H]4C=C[C@H]3C4)n2)C1 [Compound I-308, (1S,2S,3R,4R)-3-((2-(((S)-1-acetylpiperidin-3-yl)amino)-5-(trifluoromethyl)pyrimidin-4-yl)amino)bicyclo[2.2.1]hept-5-ene-2-carboxamide] | G (proived a mass modification ≦30%)
COc1cc(N2CCOCC2)ccc1Nc1ncc(C(C)=O)c(Nc2ccccc2N)n1 [Compound I-313, 1-(4-((2-aminophenyl)amino)-2-((2-methoxy-4-morpholinophenyl)amino)pyrimidin-5-yl)ethanone] | G (proived a mass modification ≦30%)
C=CC(=O)Nc1ccccc1Nc1nc(Nc2ccc(N(CC)C(C)=O)cc2C(F)(F)F)ncc1Cl [Compound I-320] | F (provided a mass modification of 31-69%)
C=CC(=O)Nc1cc(C(F)(F)F)ccc1Nc1nc(Nc2cc(OC)ncc2C)ncc1C(F)(F)F [Compound I-323, N-(2-((2-((2-methoxy-5-methylpyridin-4-yl)amino)-5-(trifluoromethyl)pyrimidin-4-yl)amino)-5-(trifluoromethyl)phenyl)acrylamide] | E (provided a mass modification of ≧70%)
C=CC(=O)Nc1cc(C)ccc1Nc1nc(Nc2cc(OC)nc(N3CCN(C)CC3)c2)ncc1C(F)(F)F [Compound I-325, N-(2-((2-((2-methoxy-6-(4-methylpiperazin-1-yl)pyridin-4-yl)amino)-5-(trifluoromethyl)pyrimidin-4-yl)amino)-5-methylphenyl)acrylamide] | E (provided a mass modification of ≧70%)
C=CS(=O)(=O)Nc1cc(C)ccc1Nc1nc(Nc2cc(OC)ncc2C)ncc1C(F)(F)F [Compound I-333, N-(2-((2-((2-methoxy-5-methylpyridin-4-yl)amino)-5-(trifluoromethyl)pyrimidin-4-yl)amino)-5-methylphenyl)ethenesulfonamide] | E (provided a mass modification of ≧70%)
C=CC(=O)Nc1cc(C)ccc1Nc1nc(Nc2cc(OC)nc(N(C)CCOC)c2)ncc1C(F)(F)F [Compound I-336, N-(2-((2-((2-methoxy-6-((2-methoxyethyl)(methyl)amino)pyridin-4-yl)amino)-5-(trifluoromethyl)pyrimidin-4-yl)amino)-5-methylphenyl)acrylamide] | E (provided a mass modification of ≧70%)
C=CC(=O)Nc1cc(C)ccc1Nc1nc(Nc2cc(NC3CC3)nc(OC)c2)ncc1C(F)(F)F [Compound I-337, N-(2-((2-((2-(cyclopropylamino)-6-methoxypyridin-4-yl)amino)-5-(trifluoromethyl)pyrimidin-4-yl)amino)-5-methylphenyl)acrylamide] | E (provided a mass modification of ≧70%)
C=CC(=O)Nc1ccccc1Nc1nc(Nc2cc(OC)cc(OC)c2)ncc1C(F)(F)F [Compound I-338, N-(2-((2-((3,5-dimethoxyphenyl)amino)-5-(trifluoromethyl)pyrimidin-4-yl)amino)phenyl)acrylamide] | E (provided a mass modification of ≧70%)
C=CC(=O)Nc1ccccc1Nc1nc(Nc2cc(OC)ccc2C)ncc1C(F)(F)F [Compound I-340, N-(2-((2-((5-methoxy-2-methylphenyl)amino)-5-(trifluoromethyl)pyrimidin-4-yl)amino)phenyl)acrylamide] | E (provided a mass modification of ≧70%)
C=CC(=O)Nc1cc(C)ccc1Nc1nc(Nc2cc(OC)ccc2C)ncc1C(F)(F)F [Compound I-341, N-(2-((2-((5-methoxy-2-methylphenyl)amino)-5-(trifluoromethyl)pyrimidin-4-yl)amino)-5-methylphenyl)acrylamide] | E (provided a mass modification of ≧70%)
C=CC(=O)Nc1cc(C)ccc1Nc1nc(Nc2cc(OC)nc(N(C)C3CC3)c2)ncc1C(F)(F)F [Compound I-342, N-(2-((2-((2-(cyclopropyl(methyl)amino)-6-methoxypyridin-4-yl)amino)-5-(trifluoromethyl)pyrimidin-4-yl)amino)-5-methylphenyl)acrylamide] | E (provided a mass modification of ≧70%)
C=CC(=O)Nc1cc(C)ccc1Nc1nc(Nc2cc(P(C)(C)=O)ncc2C)ncc1C(F)(F)F [Compound I-343, N-(2-((2-((2-(dimethylphosphoryl)-5-methylpyridin-4-yl)amino)-5-(trifluoromethyl)pyrimidin-4-yl)amino)-5-methylphenyl)acrylamide] | F (provided a mass modification of 31-69%)
C#CC(=O)Nc1cc(C)ccc1Nc1nc(Nc2cc(OC)ncc2C)ncc1C(F)(F)F [Compound I-345, N-(2-((2-((2-methoxy-5-methylpyridin-4-yl)amino)-5-(trifluoromethyl)pyrimidin-4-yl)amino)-5-methylphenyl)propiolamide] | E (provided a mass modification of ≧70%)
C=CC(=O)Nc1cc(C)ccc1Nc1nc(Nc2nc(OC)ncc2C#N)ncc1C(F)(F)F [Compound I-346, N-(2-((2-((5-cyano-2-methoxypyrimidin-4-yl)amino)-5-(trifluoromethyl)pyrimidin-4-yl)amino)-5-methylphenyl)acrylamide] | E (provided a mass modification of ≧70%)
C=CC(=O)Nc1cc(C)ccc1Nc1nc(Nc2nc(OC)ncc2OC)ncc1C(F)(F)F [Compound I-349, N-(2-((2-((2,5-dimethoxypyrimidin-4-yl)amino)-5-(trifluoromethyl)pyrimidin-4-yl)amino)-5-methylphenyl)acrylamide] | E (provided a mass modification of ≧70%)
C=CC(=O)Nc1cc(C)ccc1Nc1nc(Nc2cnc(OC)cc2C)ncc1C(F)(F)F [Compound I-350, N-(2-((2-((6-methoxy-4-methylpyridin-3-yl)amino)-5-(trifluoromethyl)pyrimidin-4-yl)amino)-5-methylphenyl)acrylamide] | F (provided a mass modification of 31-69%)
C=CC(=O)Nc1cc(C)ccc1Nc1nc(Nc2cc(OC)ncc2Cl)ncc1C(F)(F)F [Compound I-351, N-(2-((2-((5-chloro-2-methoxypyridin-4-yl)amino)-5-(trifluoromethyl)pyrimidin-4-yl)amino)-5-methylphenyl)acrylamide] | F (provided a mass modification of 31-69%)
C=CC(=O)Nc1cc(C)ccc1Nc1nc(Nc2ncc(C(F)(F)F)c(OC)n2)ncc1C(F)(F)F [Compound I-354, N-(2-((2-((4-methoxy-5-(trifluoromethyl)pyrimidin-2-yl)amino)-5-(trifluoromethyl)pyrimidin-4-yl)amino)-5-methylphenyl)acrylamide] | E (provided a mass modification of ≧70%)
C=CC(=O)Nc1cc(C)ccc1Nc1nc(Nc2nc(OC)ncc2F)ncc1C(F)(F)F [Compound I-357, N-(2-((2-((5-fluoro-2-methoxypyrimidin-4-yl)amino)-5-(trifluoromethyl)pyrimidin-4-yl)amino)-5-methylphenyl)acrylamide] | E (provided a mass modification of ≧70%)
C=CC(=O)Nc1cc(C)ccc1Nc1nc(Nc2cc(OCC)ncc2C)ncc1C(F)(F)F [Compound I-358, N-(2-((2-((2-ethoxy-5-methylpyridin-4-yl)amino)-5-(trifluoromethyl)pyrimidin-4-yl)amino)-5-methylphenyl)acrylamide] | E (provided a mass modification of ≧70%)
C=CC(=O)Nc1cc(C)ccc1Nc1nc(Nc2cc(OCCOC)ncc2C)ncc1C(F)(F)F [Compound I-359, N-(2-((2-((2-(2-methoxyethoxy)-5-methylpyridin-4-yl)amino)-5-(trifluoromethyl)pyrimidin-4-yl)amino)-5-methylphenyl)acrylamide] | E (provided a mass modification of ≧70%)
C=CC(=O)Nc1cc(C)c(F)cc1Nc1nc(Nc2cc(OC)ncc2C)ncc1C(F)(F)F [Compound I-366, N-(4-fluoro-2-((2-((2-methoxy-5-methylpyridin-4-yl)amino)-5-(trifluoromethyl)pyrimidin-4-yl)amino)-5-methylphenyl)acrylamide] | E (provided a mass modification of ≧70%)
C=CC(=O)Nc1c(Nc2nc(Nc3cc(OC)ncc3C)ncc2C(F)(F)F)ccc(C)c1F [Compound I-367, N-(2-fluoro-6-((2-((2-methoxy-5-methylpyridin-4-yl)amino)-5-(trifluoromethyl)pyrimidin-4-yl)amino)-3-methylphenyl)acrylamide] | E (provided a mass modification of ≧70%)
